Data on five compounds can be found in publication PMC6370856, “Peptidyl prolyl cis/trans isomerase activity on the cell surface correlates with extracellular matrix development” (Communications Biology, 2019).

One data set concerns the target T1, Pin1 (Homo sapiens, UniProt Q13526).
T1 construct: host or cells: Escherichia coli BL21 (DE3)
Put plainly: Liquid chromatography-based protease-coupled PPIase activity assay, Pin1 (nagarse). Format: biochemical. An excerpt: A small gap was opened on

In another data set the test system is fibrin hydrogel. Put plainly: Stiffness (storage modulus) of fibrin gel by rheometer. As to the method: To minimize sample evaporation at 37 °C, a tissue paper wet in HEPEs buffer (10 mM, pH 7.8) was placed inside the H-PTD chamber to increase the humidity. […] The cone and plate were treated with plasma for 5 min to increase the hydrophilicity of the metal surface.
Fibrin gel: Fibrinogen (Shanghai Laishi Xuezhipin Limited Company) was dissolved in PBS with a concentration of 22.2 mg mL^−1 overnight at room temperature with gentle shaking and aliquoted in protein low-binding tubes (45 µL per tube). […] Fifty microliters of thrombin (4 EU mL^−1 in PBS with 1.8 mM CaCl2) was added and pipetted up and down ten times. Then, it was transferred to the rheometer plate for measurement. […] For each condition, two independent experiments were performed (Fig. 1a and Supplementary Fig. 1).

Data set [1] deals with PBMC samples from healthy donors, mixed. Nature of the data set: PACS in a two-way mixed lymphocyte reaction. Type of data set: cell-based, human. As to conditions: for effect on PACS in two-way mixed lymphocyte reaction: PBMCs treated with immunosuppressive drug; for cell surface PPIase activity k, Exp. 1 / cell surface PPIase activity k, Exp. 2 / cell surface PPIase activity k, Exp. 3 / cell surface PPIase activity k, Exp. 4 / cell surface PPIase activity k, Mean: 24 hours. As to the method:
PACS were measured with four PBMC samples from healthy donors or with all six different combinations. […] After 24 h, diminished activity was detected in all combinations (Fig. 6d). For two combinations, no trace of activity could be detected, resembling the results from some primary samples of leukemia cells.
Mixed lymphocyte reaction is a routine assay used to measure the safety of implantable materials and the effect of immunosuppressive treatments. The PACS assay could become an alternative test, within a relatively short period of time, avoiding the use of biochemical reagents such as antibodies.
The assay was performed in a cold room. If there was no additional description, the assays were performed in CO2-independent medium supplemented with 10% (v/v) h.i. FBS (medium-h.i. FBS) and 2mM L-glutamine. […] FBS to a final concentration of 120 µg mL^−1 (two times substrate stock). α-Chymotrypsin was prepared freshly. Fifteen micrograms of α-chymotrypsin was dissolved in 2 mL medium-h.i. FBS, and the pH was adjusted with 10 µL 1 M NaOH. Five millimole CsA, SLF, and CsA/SLF mixture were prepared in DMSO.
One or more flasks of cells (5 mL per flask, depending on the maximum culture density of each cell line) were harvested by centrifuging at 1000 rpm for 3 min. To remove PPIases from the supernatant originating from the culture, cells were washed one time with 2 mL CO2-independent medium and were resuspended in 1.6 mL of CO2-independent medium with substrate. The cells were centrifuged again, and then 800 µL of the supernatant was taken. The residual volume containing cells was suspended. Nineteen microliters of the cells or supernatant was pipetted to a non-binding 96-well microplate to measure PPIase activity. Four different conditions were performed. […] The plate was kept for 5 min without agitation. The activity measurements were triggered by adding 20 µL of α-chymotrypsin at time 0 min, followed by 1.5 min agitation, and the reaction was stopped after 2 min with 80 µL 20% acetic acid, followed by 15 rounds of up and down pipetting mixing. Four independent experiments were performed on the same day.

The test system of data set [2] is mixture of Jurkat T lymphocyte and the plasma protein fibrinogen. Put plainly: Viscosity/shear rate measurement of Jurkat cells in fibrinogen solution. Type of data set: cell-based. An excerpt:
Since PPIases can catalyze the dynamic rearrangement of the dense ECM polymer network, we speculated that PPIases could also affect the dynamic interaction between cells and the ECM. Probing the influence of transient prolyl isomerization on cell–ECM interaction is difficult. Studying cell adhesion by the treatment of PPIase inhibitors cannot distinguish extracellular and intracellular factors as well as receptor-mediated signaling due to the long assay time. In order to reflect the highly dynamic process, we measured the viscosity of plasma protein solution with cells. Blood is a shear-thinning non-Newtonian fluid, and its viscosity is largely affected by the interaction between cells and plasma proteins, for example, the coagulation process. We investigated whether the catalyzed isomerization could also influence the interaction between blood cells and plasma proteins, thus affecting the viscosity. We performed viscosity/shear rate measurements using a mixture of Jurkat T lymphocyte and the plasma protein fibrinogen.
The machine used for viscosity is the same as for stiffness measurements. To 30 µL of 4 mg mL^−1 fibrinogen, an equal volume of Jurkat cells (8 × 10^7 mL^−1 in PBS, washed two times with PBS before used; Jurkat cells ocupated around 20% of the volume) was added. The mixture was pipetted up and down six times, kept on ice for 10 min, and then transferred to the rheometer plater (25 °C) for measurements. The plate temperature was raised to 37 °C. The measurement was performed by increasing shear rate ramp liner from 100 to 1000 s^−1. Hundred data points were collected during the measurements. For each condition, two independent experiments were performed (Fig. 1c and Supplementary Fig. 3).

T1 sequence (Q13526 with tags, fused parts or gaps): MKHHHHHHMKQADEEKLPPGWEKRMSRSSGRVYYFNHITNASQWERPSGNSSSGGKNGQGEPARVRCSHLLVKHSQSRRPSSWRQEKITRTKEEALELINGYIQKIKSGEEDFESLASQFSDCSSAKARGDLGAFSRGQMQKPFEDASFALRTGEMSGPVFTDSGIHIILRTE

For the compound `O=P(O)(O)O` [PO4-, inorganic phosphate, reference compound], at Pin1 (25 nM Pin1 + 50 mM PO4-), the “Pin catalyzing cis to trans isomerization rate k, Exp. 1” value (“Pin catalyzing cis … Exp. 1” below) stood at 0.0025 s⁻¹; the “Pin catalyzing cis to trans isomerization rate k, Exp. 3” value (shortened to “Pin catalyzing cis … Exp. 3”) is 0.00169 s⁻¹; the “Pin catalyzing cis to trans isomerization rate k, Mean” value (“Pin catalyzing cis … Mean” for short) was 0.00212 s⁻¹. Also, the “effect on Pin1 activity” value on Pin1 (50 mM) is given as “inhibited”.

“CypA R55A: inactive mutant CypA R55A (a gift from Gunter Fischer)”: the “effect on fibrin gelation as compared to the wild-type CypA” value with fibrin hydrogel was “remarkably reduced”.

Turning to `CO[C@H]1C[C@@H]2CC[C@@H](C)[C@@](O)(O2)C(=O)C(=O)N2CCCC[C@H]2C(=O)O[C@H]([C@H](C)C[C@@H]2CC[C@@H](O)[C@H](OC)C2)CC(=O)[C@H](C)/C=C(\C)[C@@H](O)[C@@H](OC)C(=O)[C@H](C)C[C@H](C)/C=C/C=C/C=C/1C` [rapamycin], the “effect on PACS in two-way mixed lymphocyte reaction” value in data set [1] is recorded as “recover PACS”. The “cell surface PPIase activity k, Exp. 1” value in data set [1] (healthy donors ab mixed) stood at 0.00035 s⁻¹; in data set [1] (healthy donors ad mixed), 0.00034 s⁻¹; in data set [1] (healthy donors bc mixed), 0.00037 s⁻¹; in data set [1] (healthy donors bd mixed), 0.00043 s⁻¹; in data set [1] (healthy donors cd mixed), 0.00036 s⁻¹. Further, the “cell surface PPIase activity k, Exp. 2” value in data set [1] (healthy donors ab mixed) is 0.00038 s⁻¹; in data set [1] (healthy donors ac mixed) it was 0.00041 s⁻¹; in data set [1] (healthy donors ad mixed), 0.00028 s⁻¹; in data set [1] (healthy donors bd mixed), 0.0005 s⁻¹; in data set [1] (healthy donors cd mixed), 0.00026 s⁻¹. Further, the “cell surface PPIase activity k, Exp. 3” value was found to be 0.00034 s⁻¹ in data set [1] (healthy donors ab mixed); 0.00046 s⁻¹ in data set [1] (healthy donors ac mixed); 0.00027 s⁻¹ in data set [1] (healthy donors ad mixed); 0.00037 s⁻¹ in data set [1] (healthy donors bc mixed); 0.00053 s⁻¹ in data set [1] (healthy donors bd mixed); 0.00026 s⁻¹ in data set [1] (healthy donors cd mixed). Moreover, the “cell surface PPIase activity k, Exp. 4” value in data set [1] (healthy donors ab mixed) amounted to 0.0003 s⁻¹; in data set [1] (healthy donors ac mixed), 0.00043 s⁻¹; in data set [1] (healthy donors ad mixed), 0.00037 s⁻¹; in data set [1] (healthy donors bc mixed), 0.00034 s⁻¹; in data set [1] (healthy donors bd mixed), 0.00054 s⁻¹; in data set [1] (healthy donors cd mixed), 0.0002 s⁻¹. For the same compound, the “cell surface PPIase activity k, Mean” value in data set [1] (healthy donors ab mixed) is 0.0003425 s⁻¹; in data set [1] (healthy donors ac mixed) it was 0.0004333 s⁻¹; in data set [1] (healthy donors ad mixed) it was 0.000315 s⁻¹; in data set [1] (healthy donors bc mixed) it was 0.00036 s⁻¹; in data set [1] (healthy donors bd mixed), 0.0005 s⁻¹; in data set [1] (healthy donors cd mixed) it was 0.00027 s⁻¹.

For the compound “Pin1: recombinant His-Pin1, parvulin family PPIase”, in the data set with Pin1 (6.25 nM Pin1), the “Pin catalyzing cis … Exp. 1” value came out at 0.00224 s⁻¹; the “Pin catalyzing cis to trans isomerization rate k, Exp. 2” value (from here on “Pin catalyzing cis … Exp. 2”) was 0.00228 s⁻¹; the “Pin catalyzing cis … Exp. 3” value worked out at 0.00191 s⁻¹; the “Pin catalyzing cis … Mean” value came to 0.00214 s⁻¹. In the data set with Pin1 (12.5 nM Pin1), the “Pin catalyzing cis … Exp. 1” value is 0.00419 s⁻¹; the “Pin catalyzing cis … Exp. 2” value is 0.00424 s⁻¹; the “Pin catalyzing cis … Exp. 3” value was found to be 0.00418 s⁻¹; the “Pin catalyzing cis … Mean” value turned out to be 0.0042 s⁻¹. In the data set with Pin1 (25 nM Pin1), the “Pin catalyzing cis … Exp. 1” value stood at 0.00841 s⁻¹; the “Pin catalyzing cis … Exp. 2” value amounted to 0.00868 s⁻¹; the “Pin catalyzing cis … Exp. 3” value came to 0.00853 s⁻¹; the “Pin catalyzing cis … Mean” value stood at 0.00854 s⁻¹.

`C=CC[C@@H]1/C=C(\C)C[C@H](C)C[C@H](OC)[C@H]2O[C@@](O)(C(=O)C(=O)N3CCCC[C@H]3C(=O)O[C@H](/C(C)=C/[C@@H]3CC[C@@H](O)[C@H](OC)C3)[C@H](C)[C@@H](O)CC1=O)[C@H](C)C[C@@H]2OC` [FK506]: the “effect on viscosity of cell/fibrinogen mixture” value in data set [2] (Jurkat T lymphocyte and fibrinogen, shear rate 100-1000 s^-1) was “reduce the viscosity”. The “effect on viscosity of cells in PBS or fibrinogen solution” value in data set [2] (Jurkat cells in PBS alone or fibrinogen solution alone) was “neither CsA nor FK506 has an effect”. The “effect on PACS in two-way mixed lymphocyte reaction” value in data set [1] is listed as “recover PACS”. The “cell surface PPIase activity k, Exp. 1” value in data set [1] (healthy donors ab mixed) is 0.00026 s⁻¹; in data set [1] (healthy donors ac mixed), 0.00016 s⁻¹; in data set [1] (healthy donors ad mixed), 0.00016 s⁻¹; in data set [1] (healthy donors bc mixed), 0.00038 s⁻¹; in data set [1] (healthy donors bd mixed), 0.00021 s⁻¹; in data set [1] (healthy donors cd mixed), 0.00017 s⁻¹. Also, the “cell surface PPIase activity k, Exp. 2” value in data set [1] (healthy donors ab mixed) came out at 0.00025 s⁻¹; in data set [1] (healthy donors ac mixed) it was 0.00014 s⁻¹; in data set [1] (healthy donors bc mixed) it was 0.00029 s⁻¹; in data set [1] (healthy donors bd mixed) it was 0.00026 s⁻¹; in data set [1] (healthy donors cd mixed), 0.00019 s⁻¹. Moreover, the “cell surface PPIase activity k, Exp. 3” value came out at 0.00019 s⁻¹ in data set [1] (healthy donors ab mixed), 0.00019 s⁻¹ in data set [1] (healthy donors ac mixed), 0.00017 s⁻¹ in data set [1] (healthy donors ad mixed) and 0.00031 s⁻¹ in data set [1] (healthy donors bc mixed). For the same compound, the “cell surface PPIase activity k, Exp. 4” value in data set [1] (healthy donors ab mixed) worked out at 0.00029 s⁻¹; in data set [1] (healthy donors ac mixed), 0.00016 s⁻¹; in data set [1] (healthy donors ad mixed), 0.00015 s⁻¹; in data set [1] (healthy donors bc mixed), 0.00036 s⁻¹; in data set [1] (healthy donors bd mixed) it was 0.00031 s⁻¹; in data set [1] (healthy donors cd mixed), 0.00018 s⁻¹. The “cell surface PPIase activity k, Mean” value in data set [1] (healthy donors ab mixed) worked out at 0.0002475 s⁻¹; in data set [1] (healthy donors ac mixed) it was 0.0001625 s⁻¹; in data set [1] (healthy donors ad mixed), 0.00016 s⁻¹; in data set [1] (healthy donors bc mixed), 0.000335 s⁻¹; in data set [1] (healthy donors bd mixed), 0.00026 s⁻¹; in data set [1] (healthy donors cd mixed), 0.00018 s⁻¹.
